These results are taken from ChEMBL document CHEMBL5705896 (ACS Chem Biol, 2013).

pEC50, pIC50: −log10 of the molar value. Activity calls are given as the source filed them. The calls are words filed in the database; no cut-off is given here.

For series [1], the target named is T1, Histone-lysine N-methyltransferase EZH2 (Homo sapiens, UniProt Q15910). Briefly: Inhibition of EZH2 methyltransferase activity (unknown origin) in PRC2 complex using 3H-SAM as substrate by Scintillation proximity assay. On the technique in general: In a scintillation proximity assay essentially only radioactivity close to the scintillant gives light.
Target sequence in this assay (Q15910 whole entry): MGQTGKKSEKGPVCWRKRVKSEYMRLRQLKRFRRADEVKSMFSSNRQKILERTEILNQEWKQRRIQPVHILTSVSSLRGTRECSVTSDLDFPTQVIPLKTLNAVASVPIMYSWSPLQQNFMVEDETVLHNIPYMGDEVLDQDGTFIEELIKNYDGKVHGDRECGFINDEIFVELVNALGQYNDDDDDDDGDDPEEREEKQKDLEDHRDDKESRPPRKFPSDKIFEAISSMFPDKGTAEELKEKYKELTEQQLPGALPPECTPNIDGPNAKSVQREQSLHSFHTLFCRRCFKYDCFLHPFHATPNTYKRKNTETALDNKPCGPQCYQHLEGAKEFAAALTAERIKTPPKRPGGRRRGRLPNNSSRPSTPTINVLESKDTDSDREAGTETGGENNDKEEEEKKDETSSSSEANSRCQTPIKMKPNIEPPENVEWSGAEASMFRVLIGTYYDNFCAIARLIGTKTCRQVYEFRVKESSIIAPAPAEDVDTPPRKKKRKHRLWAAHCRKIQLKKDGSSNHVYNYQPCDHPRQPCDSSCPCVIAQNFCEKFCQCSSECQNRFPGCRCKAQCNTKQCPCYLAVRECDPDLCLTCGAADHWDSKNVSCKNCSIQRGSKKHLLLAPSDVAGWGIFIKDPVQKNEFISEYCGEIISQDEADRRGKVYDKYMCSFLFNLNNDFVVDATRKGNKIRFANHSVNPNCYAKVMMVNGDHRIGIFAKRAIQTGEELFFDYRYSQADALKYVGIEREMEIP
In series [2] the target is Histone-lysine N-methyltransferase EZH1 (Homo sapiens, UniProt Q92800). Briefly: Inhibition of EZH1 methyltransferase activity (unknown origin) in PRC2 complex using 3H-SAM as substrate by Scintillation proximity assay.
Chain of Histone-lysine N-methyltransferase EZH1 (Q92800 whole entry): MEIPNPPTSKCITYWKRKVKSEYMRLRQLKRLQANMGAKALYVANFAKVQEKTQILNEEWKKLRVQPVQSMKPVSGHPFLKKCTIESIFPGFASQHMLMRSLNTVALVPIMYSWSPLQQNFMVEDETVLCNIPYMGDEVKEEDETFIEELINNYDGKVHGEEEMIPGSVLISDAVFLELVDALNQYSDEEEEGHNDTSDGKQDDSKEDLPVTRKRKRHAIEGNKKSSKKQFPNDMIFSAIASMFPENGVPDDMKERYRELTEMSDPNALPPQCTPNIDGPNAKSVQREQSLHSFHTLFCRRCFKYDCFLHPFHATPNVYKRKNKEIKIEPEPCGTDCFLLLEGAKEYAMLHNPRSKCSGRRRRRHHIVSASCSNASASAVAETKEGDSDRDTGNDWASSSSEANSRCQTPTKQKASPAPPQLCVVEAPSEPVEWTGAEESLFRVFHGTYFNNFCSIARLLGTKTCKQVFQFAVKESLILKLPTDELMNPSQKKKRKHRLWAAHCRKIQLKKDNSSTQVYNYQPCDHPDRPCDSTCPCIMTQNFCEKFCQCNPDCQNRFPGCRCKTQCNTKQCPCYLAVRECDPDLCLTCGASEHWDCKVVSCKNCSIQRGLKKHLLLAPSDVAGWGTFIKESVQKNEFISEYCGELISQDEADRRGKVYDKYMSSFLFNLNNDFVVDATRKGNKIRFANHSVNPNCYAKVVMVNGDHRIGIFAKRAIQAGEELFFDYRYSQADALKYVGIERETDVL
Series [3] has as its system DB. Briefly: Downregulation of EZH2 level in human DB cells at 3000 nM measured after 3 days. In kind it is functional, cell-based. To be noted: time 3.0 day.
The target of series [4] is Histone-lysine N-methyltransferase EZH2 (Homo sapiens, UniProt Q15910, Y641F). Briefly: Inhibition of EZH2 Y641F mutant (unknown origin) using HMT as substrate incubated for 60 mins by luminescence based analysis.
Chain of Histone-lysine N-methyltransferase EZH2 (Homo sapiens, UniProt Q15910, Y641F) (Q15910 whole entry Y641F): as the sequence (Q15910 whole entry) above, with Y641F counted along it
The subject of series [5] is DB. The series is described as follows: Antiproliferative activity against human DB cells assessed as reduction in cell viability at 3000 nM measured after 8 days by cell proliferation assay. Type of series: functional, cell-based. To be noted: time 8.0 day.
Series [6] concerns DB. Briefly: Downregulation of H3K27me3 level in human DB cells at 3000 nM measured after 3 days. Type of series: functional, cell-based. To be noted: time 3.0 day.
Series [7] can be described thus: Cytotoxicity against human MCF-10A cells assessed as reduction in cell viability by alamar blue assay. Type of series: toxicity, cell-based. On the technique in general: Resazurin is reduced to fluorescent resorufin, in cell work by metabolically active cells.
For series [8], the target named is T1, Histone-lysine N-methyltransferase EZH2. Briefly: Binding affinity to GFP-tagged EZH2 in HEK293 cells assessed as nuclear colocalization at 3.75 uM incubated for 15 mins by imaging based analysis. Type of series: cell-based.
Target sequence in this assay (Q15910 whole entry, looked up): as the sequence (Q15910 whole entry) above
For series [9], the target named is Histone-lysine N-methyltransferase EZH2 (Mus musculus) (UniProt Q61188). The series is described as follows: Binding affinity to EZH2 in mouse MEF cells expressing YPet fluorophore assessed as increase in fluorescence intensity in nucleus at 3.75 uM incubated for 15 mins. In kind it is cell-based.
Chain of Histone-lysine N-methyltransferase EZH2 (Mus musculus) (Q61188 whole entry): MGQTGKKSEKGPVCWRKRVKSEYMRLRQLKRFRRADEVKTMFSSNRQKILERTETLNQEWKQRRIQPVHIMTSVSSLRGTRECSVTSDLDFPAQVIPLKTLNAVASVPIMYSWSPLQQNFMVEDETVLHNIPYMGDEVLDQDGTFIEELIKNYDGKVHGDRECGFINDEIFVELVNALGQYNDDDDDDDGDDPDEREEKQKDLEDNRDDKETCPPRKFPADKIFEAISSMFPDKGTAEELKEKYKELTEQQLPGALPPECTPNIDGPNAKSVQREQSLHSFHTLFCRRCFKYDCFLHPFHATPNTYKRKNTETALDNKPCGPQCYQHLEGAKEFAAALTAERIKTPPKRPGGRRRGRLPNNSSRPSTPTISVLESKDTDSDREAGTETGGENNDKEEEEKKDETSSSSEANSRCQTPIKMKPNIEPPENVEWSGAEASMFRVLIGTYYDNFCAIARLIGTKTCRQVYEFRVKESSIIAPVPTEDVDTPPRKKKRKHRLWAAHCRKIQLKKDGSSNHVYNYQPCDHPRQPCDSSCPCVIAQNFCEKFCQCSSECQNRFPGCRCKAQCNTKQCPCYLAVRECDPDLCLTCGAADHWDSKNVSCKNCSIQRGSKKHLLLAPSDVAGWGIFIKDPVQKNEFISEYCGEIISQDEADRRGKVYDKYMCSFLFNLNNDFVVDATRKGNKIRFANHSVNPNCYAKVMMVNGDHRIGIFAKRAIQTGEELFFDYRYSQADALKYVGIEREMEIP

The pIC50 is the negative decadic logarithm of the IC50, by convention in mol/L. The low end stands for a large IC50, the high end for a small IC50. Turning to `CCCc1cc(C)[nH]c(=O)c1CNC(=O)c1cc(-c2ccc(N3CCNCC3)nc2)cc2c1cnn2C(C)C`, in series [1], the negative logarithm of the IC50 (pIC50) is above 8.00.
The same measure, in the same setting: as for `CCCc1cc(C)[nH]c(=O)c1CNC(=O)c1cc(-c2ccc(N3CCN(CC)CC3)nc2)cc2c1cnn2C(C)C`, the figure is above 8.00.
On to `CCCc1cc(C)[nH]c(=O)c1CNC(=O)c1cc(-c2ccc(F)cn2)cc2c1cnn2C(C)C`, for which, in series [1], the pIC50 was 8.00.
The term pEC50 denotes the EC50 on a negative log10 scale, so that one unit is a factor of ten. In the case of `CCCc1cc(C)n(C)c(=O)c1CN(C)C(=O)c1cc(-c2ccc(N3CCN(C(C)C)CC3)nc2)cc2c1cnn2C(C)C`, the negative-log IC50 (pIC50) is 4.21 in series [2], below 3.70 in [4] and 4.89 in [1]. The result with DB [3], in the series with DB [5] and with DB [6] was inactive. Besides, the negative logarithm of the EC50 (pEC50) in series [7] is 4.56.
`CCCc1cc(C)[nH]c(=O)c1CNC(=O)c1cc(-c2ccc(F)cc2)cc2c1cnn2C(C)C` showed a negative-log IC50 (pIC50) in series [1] of 7.20.
The same measure, in the same setting: as for `CCCc1cc(C)[nH]c(=O)c1CNC(=O)c1cc(-c2ccc(N3CCN(C(=O)CCOCCOCCOCCOCCOCCOCCOCCOCCOCCOCCOCCOCCNC(=O)CCCC[C@@H]4SC[C@@H]5NC(=O)N[C@@H]54)CC3)nc2)cc2c1cnn2C(C)C`, the figure is 7.77.
`CCCc1cc(C)[nH]c(=O)c1CNC(=O)c1cc(-c2ccc(N3CCN(CCCCc4cn(CCN5C(=O)/C(=C/C=C/C=C6\N(CCC(=O)OCOC(C)=O)c7ccc(C(=O)OCOC(C)=O)cc7C6(C)C)C(=O)N(CC)C5=O)nn4)CC3)nc2)cc2c1cnn2C(C)C`: the outcome in [8] and in [9] was Active. In addition, in [1], the pIC50 was 7.68.
The molecule `CCCc1cc(C)[nH]c(=O)c1CNC(=O)c1cc(-c2ccc(N3CCN(C)CC3)nc2)cc2c1cnn2C(C)C` showed a pIC50 in series [1] above 8.00.
